US9156862B2, “Silylated azulenyl nitrone spin traps as chromotropic superoxide detectors” (THE FLORDIA INTERNATIONAL UNIVERSITY BOARD OF TRUSTEES, priority 2011, dated 2015)

What was measured:
[1] = in cyclohexane; cited from earlier work
[2] = Superoxide trapping: reaction of nitrone with potassium superoxide and crown ether in benzene; settings: for trapping of superoxide radical anion: in vitro, yielding UV-VIS identifiable orange products; for colour change / coloured product upon reaction with potassium superoxide: potassium superoxide (3 or 6 equiv.)
Source text: Thus, the amounts of potassium superoxide and crown ether were increased to 5 equivalents. Still no product was observed. The result could be due to the fact that not enough superoxide radical anion was present because of poor solubility of potassium superoxide. Therefore, 20 equivalents of potassium superoxide and crown ether were directly treated with nitrone 22. These conditions gave a product in very low yield which was impossible to identify. Finally, nitrone 22 was directly treated using 6 equivalents of potassium superoxide. […] The product was identified as aldehyde 67 by observing the aldehyde-proton signal and the up-field shifting of the ethyl signal of the azulene ring.
The detection of superoxide with azulenysilane mononitrone 23 was based on the previous method as described (vida supra). Six equivalents of potassium superoxide were used as before. As mentioned earlier, the previous reaction was monitored by observing an orange product on TLC. […] Based on the previous mechanism, it was expected to obtain the end product bis-aldehyde 72. However, ^1H NMR spectral information of the orange end product indicated the loss of the silyl group, and presence of only the mono-aldehyde. The low resolution mass spectrum detected a MH^+ of 448. Unfortunately, it was not possible to purify enough for the NMR characterization. […] It is believed that the superoxide spin adduct that formed was unstable and fragmented into another compound rather than the expected one. The loss of the silyl group could result after rearrangement via a nucleophilic attack on silicon by a second superoxide anion since an excess of superoxide anion was used and due to the high affinity of silicon towards oxygen.
The unidentified end product from superoxide radical anion with nitrone 23 led us to synthesize an analogue, the isoxazoline azulenylsilanenitrone 24, and test it for its possible utility in superoxide detection. Using the same method as described earlier, superoxide was solubilized in benzene by employing in acrown ether. The only difference in this case was the use of three equivalents of potassium superoxide instead of six equivalents. […] As in the previous case, aldehyde product 73 was expected to be formed. […] With HRMS and NMR spectral analyses, the orange product was identified as amide 74.
Guanylhydrazone nitrone 25 is a congener of nitrone 24. Incorporation of guanylhydrazone moiety may make it mitochondriotropic, and thereby render it useful to detect superoxide anion present in the mitochondria. […] The brownish orange end product was isolated and identified as amide 80 using low resolution mass spectrum (MH^+=654) which is analogous to the end product 74. In addition to amide 80, a trace of another orange product was also observed which is identified as amide 81 (MH^+=768) analogous to amide 79.
6 mg of nitrone 22 (0.0163 mmol) was mixed with 6.9 mg of potassium superoxide (0.097 mmol, 6 equiv.) and 8.6 mg of crown ether (0.032 mmol, 2 equiv.) and dissolved the mixture in 1 ml of benzene. The reaction was stirred for 3 hr at room temperature. The product was washed with 10 ml of saturated sodium chloride several times, dried over magnesium sulfate and concentrated. The mixture was purified by column chromatography using 5:5 hexane:ethylacetate to give 2.2 mg of crude 67 (43%). It was not possible to obtain 67 pure enough for definitive NMR characterization. […] When the same reaction was stirred for three days, another orange product was observed. […] Impossible to isolate this product in pure form, the structure was not identified.
20 mg of nitrone 24 was treated with 7.5 mg of potassium superoxide and 18.6 mg of crown ether in 1 ml of benzene. The reaction was stirred for 16 hr at room temperature. The mixture was then washed with 10 ml of saturated sodium chloride several times, dried and concentrated. […]

[3] = Fluorescence and quantum yield of superoxide trapping product in ethanol; type: physicochemical; settings: excitation wavelength 390 nm
Method: The UV-vis (ultra visible) absorption spectrum and fluorescence of chromotropic amide 74 was measured in ethanol. […] The fluorescence signal, indicated by red signal, was obtained by irradiating at the excitation wavelength 390 nm as shown in the spectrum. The wavelength dependence of the intensity of emitted light has been recorded at ˜490 nm (emission). The quantum yield of amide was measured at 2.7%. […] This, in addition to its chromotropic behavior, may bring an advantage over conventional cyclic nitrones which require ESR for superoxide detection.
All of the moisture sensitive reactions have been carried out using syringe septum rubber cap technique under N2 or Ar atmosphere or in a vial by flushing N2 or Ar gas into it. […] All of the reactions were monitored by TLC analysis (Whatman pre-coated silica gel F254 plates, 250 μm layer thickness), and visualization was achieved by 254 nm UV light. The crude reaction mixtures have been purified by column chromatography using 60 A (200-300 mess) on silica gel. ^1H and ^13C NMR spectra were recorded on Bruker AVANCE-400 spectrometer in CDCl3. Chemical shifts were measured in parts per million with residual solvent peak used as an internal standard. ^1H NMR spectra were run at 400 MHz and ^13C NMR spectra were recorder at […] with proton decoupled sequence. […] UV-vis spectrum was recorded using a Varian Cary 50 Bio spectrophotometer. […]

[4] = type: physicochemical
Method: Solutol HS 15 is a non-ionic solubilizer and emulsifying agent produced from 1 mole of 12-hydroxystearic acids and 15 moles of ethylene oxide. […] To prepare the concentration of 0.64 mg/ml of nitrone 25 in 3:7 solutol HS 15:1% saline solution, 1 ml of solutol HS 15 was heated until it turned into a clear liquid and cooled to room temperature. Meanwhile, 2.1 mg of nitrone 25 was crushed to a fine powder and dissolved in 1 ml of clear solutol HS 15. It was then diluted with 2.3 ml of 1% saline solution in water with frequent shaking and warming. It was then cool to room temperature to obtained green solution. The green solution was kept in a freezer, and found to be stable. The aqueous formulation of nitrone 25 with solutol HS 15 is believed to be amenable for mitochondrial superoxide detection and other biological studies.

[5] = crown ether, benzene, room temperature

C(#Cc1c2ccccc2c(C#Cc2ccccc2)c2ccccc12)c1ccccc1 [9,10-bis(phenylethynyl)anthracene]
quantum yield (QY) of fluorescence standard [1]: 1.0

CCc1c2cccccc-2c(C=O)c1O[Si](C)(C)C(C)(C)C [aldehyde 67]
stability of aldehyde end product ([2]; under the superoxide reaction conditions, decomposed as reaction proceeded): very unstable

CC(C)(C)NC(=O)c1c2cccccc-2c2c(NC(C)(C)C)c(C(=O)c3ccccc3)c(=N)oc12 [amide 74]
fluorescence emission wavelength [3]: ~490 nm
fluorescence quantum yield [3]: 2.7%

CCc1c2cccccc-2c(/C=[N+](\[O-])C(C)(C)C)c1[Si](C)(C)C(C)(C)C [nitrone 22, 2-terbutyldimethylsilyl-1ethyl-3-azulenylnitrone]
trapping of superoxide radical anion [2]: trap superoxide radical anion efficiently
reaction with superoxide ([2]; one to five equivalents of potassium superoxide and one equivalent of crown ether in benzene, room temperature): No reaction was observed
colour change / coloured product upon reaction with potassium superoxide [2, 5]: less polar orange product

CC(C)(C)/[N+]([O-])=C/c1c2cccccc-2c(C=O)c1[Si](C)(C)C(C)(C)C [nitrone 23, 2-tert-butyldimethylsilyl-3-formyl-azulene-1-nitrone]
trapping of superoxide radical anion [2]: trap superoxide radical anion efficiently
colour change / coloured product upon reaction with potassium superoxide [2, 5]: turned completely from green to orange
time for reaction mixture to turn completely from green to orange ([2]; six equivalents of potassium superoxide, crown ether, benzene): 90 min

CC(C)(C)N1OC(c2ccccc2)=C(C#N)C1c1c2cccccc-2c(/C=[N+](\[O-])C(C)(C)C)c1[Si](C)(C)C(C)(C)C (stereo not shown) [nitrone 24, 2-tert-butyl-3-[2-(tert-butyldimethyl-silanyl)-3-nitrone-azulen-1-yl]-5-phenyl-2,3-dihydro-isoxazole-4-carbonitrile]
trapping of superoxide radical anion [2]: trap superoxide radical anion efficiently
colour change / coloured product upon reaction with potassium superoxide [2, 5]: completely turned into orange solution

[H]/N=C(\N)N/N=C/c1cccc(C#Cc2cccc(C3=C(C#N)C(c4c5cccccc-5c(/C=[N+](\[O-])C(C)(C)C)c4[Si](C)(C)C(C)(C)C)N(C(C)(C)C)O3)c2)c1 (stereo not shown) [nitrone 25, 2-tert-butyl-3-[2-(tert-butyldimethyl-silanyl)-3-nitrone-azulen-1-yl]-5-[3-(3-guanylhydrazone-phenylethynyl)-phenyl]-2,3-dihydro-isoxazole-4-carbonitrile]
trapping of superoxide radical anion [2]: trap superoxide efficiently
trapping of superoxide radical anion ([2]; listed as 25): trap superoxide radical anion efficiently
concentration in solution [4]: 640 µg/mL
effect of solutol HS 15 on solubility in water [4]: increase the solubility
stability of solution [4]: stable
water solubility [4]: poorly water soluble

Cc1c2cccccc-2c(C)c1[Si](C)(C)C(C)(C)C [nitrone 40, 2-tert-butyldimethylsilyl-1,3-dimethylazulene]
colour change / coloured product upon reaction with potassium superoxide [2, 5]: turned into brownish orange
